Data set [1] deals with TGFβ signaling (12×CAGA-Firefly_Luc reporter) in HEK293T cells. The experiment in a line: In vitro CAGA-Luciferase reporter assay. The data set is classed as cell-based. The conditions noted are these: Homo sapiens, HEK-293T, 5 ng/ml TGFB1, 16h, read-out: IC50, TGFβ signaling inhibition (CAGA-Luciferase). The procedure: HEK293T cells were purchased from the ATCC and cultured in DMEM supplemented with L-glutamine and 10% fetal bovine serum (Life Technologies) at 37° C. and 5% CO2. The cells were seeded in 24-well plates and transfected with plasmids encoding 12×CAGA-Firefly_Luc and Tk-Renilla_Luc (75 and 10 ng per well, respectively), using polyethylenimine (Polysciences) as transfection reagent. After 7h, medium was replaced for starvation medium (DMEM+0.05% FBS). […] Luciferase activity was measured 16h later using the Dual Luciferase Assay kit (Promega): media were aspirated, and cells were lysed in 200 μl passive lysis buffer (kit) for 20 minutes. Bioluminescence was measured in a Berthold Lumat LB6507 luminometer (18 μl reagents, 10 seconds measurements). […]
When adding the luciferase substrate (luciferin) to the cell lysates, emission of light implies an active TGF-β pathway due to the production of pSMAD2/3-SMAD4, whereas no or little observed light would imply inhibition of the pathway by the inhibitor. Finally, the results could be normalized by the addition of Stop & Glo® which quenches the firefly luciferase enzyme/substrate and activates the Renilla transfection control, producing light which was again measured by the luminometer and used to normalize the data.

Data set [2] can be described thus: In vivo toxicity, histopathology. Also on record: species or system mouse. The conditions noted are these: for Sternum side effect, mice affected per mice tested / Long bones side effect, mice affected per mice tested: two weeks. The source says:
Number of cured mice, i.e. mice with no metastases at experimental end points, were score. Intestines, skin samples, hearts, thoracic skeletons and limbs of these mice were fixed in 10% formalin, phosphate buffered (Sigma). Soft tissues were embedded in paraffin blocks, sectioned and stained with haematoxylin & eosin. Bones were first decalcified for 2 weeks before embedding, sectioning and staining. An experienced pathologist analyzed tissues for histopathological abnormalities. […] Furthermore, the cartilage ossification zone at the ends of the long bones was analysed for defects in the hypertrophic zone.

The test system of another data set is HEK293T cells. The experiment in a line: In vitro cytotoxicity, XTT assay. Format: cell-based. The conditions noted are these: 24h. The procedure:
To assess the toxicity of the compound of formula I in vitro, HEK293T cells were seeded in 96-well plates and treated for 24h with indicated compounds. DMSO was used as a control.
Cell viability was assessed by the XTT assay (Biological Industries), according to the manufacturer's instructions, incubating for 4h prior to measurement.

In the case of `Cc1cccc(-c2nn3c(c2-c2ccnc4ccc(O)cc24)CCC3)n1` [compound of formula I, 4-(2-(6-methylpyridin-2-yl)-5,6-dihydro-4H-pyrrolo[1,2-b]pyrazol-3-yl)quinolin-6-ol], the IC50 in data set [1] was found to be 165 nM. The “Combined side effects per number tested” value in data set [2] (0.3x dose) was 0/5; in data set [2] (1x dose), 0/5; in data set [2] (3x dose), 2/10; in data set [2] (9x dose), 4/8. Further, the “Toxicity (%)” value in data set [2] (0.3x dose) was 0%; in data set [2] (1x dose), 0%; in data set [2] (3x dose), 20%; in data set [2] (9x dose), 50%. Further, the “Sternum side effect, mice affected per mice tested” value in data set [2] (0.3x dose) was 0/5; in data set [2] (1x dose), 0/5; in data set [2] (3x dose), 1/5; in data set [2] (9x dose) it was 1/4. Moreover, the “pathological analysis of the skin and intestine” value in data set [2] (1× doses) is recorded as “No pathological anomalies”. For the same molecule, the “Long bones side effect, mice affected per mice tested” value is recorded as 1/5 in data set [2] (3x dose) and 3/4 in data set [2] (9x dose). Moreover, the “toxic dose (toxicity >50%)” value in data set [2] (9× dose equivalent) was found to be 1272 mg/kg/day. In addition, in data set [2] (dose equivalents), the “therapeutic index (toxic dose/effective dose)” value turned out to be 30. For the same molecule, the values for the Cell viability with HEK293T cells (30 μM) and in the data set with HEK293T cells (100 μM) were 93% and 64%, respectively.

The values are drawn from patent US20220089600A1, “TGFß INHIBITOR AND PRODRUGS” (FUNDACIÓ INSTITUT DE RECERCA BIOMÈDICA (IRB BARCELONA), priority 2018, published 2022).
